Measurements from the supplement of paper PMC6965134.
± gives the standard deviation of the averaged measurements.

Assay: TIMS collisional cross section (CCS, N2) of the lipid ion; higher = larger ion cross section
Conditions: ionization mode: negative, one isomer drawn
Procedure: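 Lipid extracts of human plasma (NIST SRM 1950), mouse liver or HeLa cells were separated by nanoflow C18 LC (30 min gradient) and analysed by TIMS-PASEF on a timsTOF Pro. Ion mobility was calibrated with the Agilent tuning mix (negative mode ions) and converted to collisional cross sections (Mason–Schamp, N2).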
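Further: lipids from MTBE extraction, five replicate injections per sample, 100 ms TIMS ramp spanning 0.6–1.95 Vs/cm², lipid identity assigned from PASEF MS/MS spectra.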

For `CCCCC/C=C\C/C=C\C/C=C\CCCCC(=O)O[C@H](COC(=O)CCCCCCCCCCCCCC)COP(=O)([O-])OCC[N+](C)(C)C` [PC 15:0@_18:3], the “TIMS collisional cross section” value (sample type: Human plasma, ion (formula + adduct): [C41H76NO8P+HCOO] 1-) was 287.1 Å².

For `C=CC(=O)O[C@H](COC(=O)CCCCCCCCCCCCCCCCC)COP(=O)([O-])OCC[N+](C)(C)C` [PC 18:0_3:1], the “TIMS collisional cross section” value (sample type: Human plasma, ion (formula + adduct): [C29H56NO8P+AcO] 1-) was 252.1 Å².

With `CC/C=C\C/C=C\C/C=C\C/C=C\C/C=C\CCCCCC(=O)OC(COCCCCCCCCCCCCCCCC)COP(=O)([O-])OCC[N+](C)(C)C` (stereo unspecified) [PC O- 16:0@_22:5] the “TIMS collisional cross section” value (sample type: Human plasma, ion (formula + adduct): [C46H84NO7P-CH3] 1-) was 281.3 Å² and the “TIMS collisional cross section” value (sample type: Mouse Liver, ion (formula + adduct): [C46H84NO7P-CH3] 1-) was 280.2 Å².

For `CC/C=C\C/C=C\C/C=C\C/C=C\C/C=C\C/C=C\CCC(=O)O[C@H](COC(=O)CCCCCCCCCCCCCCCCC)COP(=O)([O-])OCC[N+](C)(C)C` [PC 18:0_22:6], the “TIMS collisional cross section” value (sample type: Human plasma, ion (formula + adduct): [C48H84NO8P+HCOO] 1-) was 303.4 Å² and the “TIMS collisional cross section” value (sample type: Mouse Liver, ion (formula + adduct): [C48H84NO8P+HCOO] 1-) was 302.2 Å².

In the case of `CCCCCC/C=C\CCCCCCCC(=O)OC[C@@H](O)COP(=O)(O)OCCN` [LPE 16:1_0:0], the “TIMS collisional cross section” value (sample type: Human plasma, ion (formula + adduct): [C21H42NO7P-H] 1-) is reported as 208.4 Å² and the “TIMS collisional cross section” value (sample type: Mouse Liver, ion (formula + adduct): [C21H42NO7P-H] 1-) is reported as 208.4 Å².

In the case of `CCCCC/C=C\C/C=C\C/C=C\C/C=C\CCCC(=O)O[C@H](COC(=O)CCCCCCCCCCCCCCCCCC)COP(=O)(O)OCCN` [PE 19:0_20:4], the “TIMS collisional cross section” value (sample type: Mouse Liver, ion (formula + adduct): [C44H80NO8P-H] 1-) is reported as 279.6 Å².

For `CCCCCCCCCCCCCCCCCCOC[C@H](COP(=O)(O)OCCN)OC(=O)CCCCCCCCCCCCCCCCCC` [PE O- 18:0@_19:0], the “TIMS collisional cross section” value (sample type: Human plasma, ion (formula + adduct): [C42H86NO7P+AcO] 1-) was 298 Å².

In the case of `CC/C=C\C/C=C\C/C=C\C/C=C\C/C=C\CCCC(=O)O[C@H](COC(=O)CCCCCCCCCCCCCCC)COP(=O)([O-])OCC[N+](C)(C)C` [PC 16:0_20:5], the “TIMS collisional cross section” value (sample type: Human plasma, ion (formula + adduct): [C44H78NO8P+HCOO] 1-) is reported as 292.7 Å² and the “TIMS collisional cross section” value (sample type: Mouse Liver, ion (formula + adduct): [C44H78NO8P-CH3] 1-) is reported as 275.6 Å².

In the case of `CCCCCCCCCCCCCCCCC(=O)OC[C@H](COP(=O)([O-])OCC[N+](C)(C)C)OC(C)=O` [PC 17:0@_2:0], the “TIMS collisional cross section” value (sample type: Human plasma, ion (formula + adduct): [C27H54NO8P-H] 1-) is reported as 239 ± 3 Å².

With `CCCCCCC/C=C\CCCCCCCC(=O)O[C@H](COC(=O)CCCCCCCCCCCCCCC)COP(=O)([O-])OCC[N+](C)(C)C` [PC 16:0_17:1] the “TIMS collisional cross section” value (sample type: Mouse Liver, ion (formula + adduct): [C41H80NO8P+HCOO] 1-) was 288.8 Å².

For `CCCCC/C=C\C/C=C\C/C=C\C/C=C\CCCC(=O)OC[C@@H](O)COP(=O)([O-])OCC[N+](C)(C)C` [LPC 20:4_0:0], the “TIMS collisional cross section” value (sample type: Human plasma, ion (formula + adduct): [C28H50NO7P+HCOO] 1-) was 243.1 Å² and the “TIMS collisional cross section” value (sample type: Human plasma, ion (formula + adduct): [C28H50NO7P-CH3] 1-) was 225.9 ± 0.85 Å².

For `CC/C=C\C/C=C\C/C=C\C/C=C\C/C=C\CCCC(=O)O[C@H](COCCCCCCCCCCCCCCCC)COP(=O)([O-])OCC[N+](C)(C)C` [PC O- 16:0@_20:5], the “TIMS collisional cross section” value (sample type: Human plasma, ion (formula + adduct): [C44H80NO7P+AcO] 1-) was 298.5 Å².

For `CCCCC/C=C\C/C=C\CCCCCCCC(=O)OC[C@@H](O)COP(=O)(O)OCCN` [LPE 18:2_0:0], the “TIMS collisional cross section” value (sample type: Human plasma, ion (formula + adduct): [C23H44NO7P-H] 1-) was 212.88 ± 0.79 Å² and the “TIMS collisional cross section” value (sample type: Mouse Liver, ion (formula + adduct): [C23H44NO7P-H] 1-) was 212.2 Å².

For `CC/C=C\C/C=C\C/C=C\CCCCCCCC(=O)O[C@H](COC(=O)CCCCCCCCCCCCC)COP(=O)([O-])OCC[N+](C)(C)C` [PC 14:0_18:3], the “TIMS collisional cross section” value (sample type: Mouse Liver, ion (formula + adduct): [C40H74NO8P+HCOO] 1-) was 284 Å².

With `CC/C=C\C/C=C\C/C=C\C/C=C\C/C=C\C/C=C\CCC(=O)OC[C@H](COP(=O)(O)OCCN)OC(=O)CCCCCCCCCCCCCCCCCCC` [PE 22:6_20:0] the “TIMS collisional cross section” value (sample type: Mouse Liver, ion (formula + adduct): [C47H82NO8P-H] 1-) was 287.5 Å².

In the case of `CCCCCCCCCCCCCCCC(=O)OC[C@H](COP(=O)([O-])OCC[N+](C)(C)C)OC(=O)CCCCCCCCCCCCCCC` [PC 16:0_16:0], the “TIMS collisional cross section” value (sample type: Human plasma, ion (formula + adduct): [C40H80NO8P+HCOO] 1-) is reported as 289.35 ± 2.3 Å² and the “TIMS collisional cross section” value (sample type: Mouse Liver, ion (formula + adduct): [C40H80NO8P+HCOO] 1-) is reported as 287.7 Å².

In the case of `CC/C=C\C/C=C\C/C=C\C/C=C\C/C=C\C/C=C\CCC(=O)OC(COC(=O)CCCCCCCCCCCCCCC)COP(=O)(O)OCCN` (stereo unspecified) [PE 16:0_22:6], the “TIMS collisional cross section” value (sample type: Mouse Liver, ion (formula + adduct): [C43H74NO8P-H] 1-) is reported as 274.62 ± 0.25 Å².

In the case of `CC/C=C\C/C=C\C/C=C\C/C=C\C/C=C\C/C=C\CCC(=O)OC[C@H](COP(=O)(O)OCCN)OC(=O)CCCCCCC/C=C\CCCCCCCC` [PE 22:6_18:1], the “TIMS collisional cross section” value (sample type: Mouse Liver, ion (formula + adduct): [C45H76NO8P-H] 1-) is reported as 279.5 ± 0.85 Å².

For `CCCCCCCCCCCCCCCCCCOC[C@H](COP(=O)(O)OCCN)OC(=O)CCCCCCCCCCCCCCCC` [PE O- 18:0_17:0], the “TIMS collisional cross section” value (sample type: Mouse Liver, ion (formula + adduct): [C40H82NO7P-CH3] 1-) was 267.9 Å².

For `CCCCC/C=C\C/C=C\C/C=C\C/C=C\CCCC(=O)OC[C@H](COP(=O)(O)OC1[C@H](O)[C@H](O)C(O)[C@H](O)[C@H]1O)OC(=O)CCCCCCCCCCCCCCC` (stereo partly specified) [PI 20:4_16:0], the “TIMS collisional cross section” value (sample type: Human plasma, ion (formula + adduct): [C45H79O13P-H] 1-) was 291.9 Å² and the “TIMS collisional cross section” value (sample type: Mouse Liver, ion (formula + adduct): [C45H79O13P-H] 1-) was 291.3 Å².

For `CCCCC/C=C\C/C=C\C/C=C\C/C=C\CCCC(=O)OC[C@@H](O)COP(=O)(O)OCCN` [LPE 20:4_0:0], the “TIMS collisional cross section” value (sample type: Mouse Liver, ion (formula + adduct): [C25H44NO7P-H] 1-) was 217.3 Å².

In the case of `CCCCCCCCCCCCCCCCOC[C@H](COP(=O)([O-])OCC[N+](C)(C)C)OC(=O)CCCCCCCCCCCCC` [PC O- 16:0@_14:0], the “TIMS collisional cross section” value (sample type: Human plasma, ion (formula + adduct): [C38H78NO7P+HCOO] 1-) is reported as 282.2 Å².

For `CCCC/C=C\CCCCCCCC(=O)OC[C@H](COP(=O)([O-])OCC[N+](C)(C)C)OC(=O)CCCCCCCCCCCCCCC` [PC 14:1_16:0], the “TIMS collisional cross section” value (sample type: Mouse Liver, ion (formula + adduct): [C38H74NO8P+Cl] 1-) was 268.8 Å².

For `CCCCCCCCCCCCC/C=C/[C@@H](O)[C@H](CO)NC(=O)CCCCCCCCCCCCCCCCCCCCC` [Cer d18:1_22:0], the “TIMS collisional cross section” value (sample type: Mouse Liver, ion (formula + adduct): [C40H79NO3-H] 1-) was 265 Å².

In the case of `CCCCC/C=C\C/C=C\C/C=C\C/C=C\CCCCCC(=O)O[C@H](COC(=O)CCCCCCCCCCCCCCCCC)COP(=O)([O-])OCC[N+](C)(C)C` [PC 18:0_22:4], the “TIMS collisional cross section” value (sample type: Human plasma, ion (formula + adduct): [C48H88NO8P+HCOO] 1-) is reported as 305.1 Å² and the “TIMS collisional cross section” value (sample type: Mouse Liver, ion (formula + adduct): [C48H88NO8P+HCOO] 1-) is reported as 304.5 Å².

With `CCCCC/C=C\C/C=C\CCCCCCCC(=O)O[C@H](COC(=O)CCCCCCC/C=C\CCCCCC)COP(=O)([O-])OCC[N+](C)(C)C` [PC 16:1_18:2] the “TIMS collisional cross section” value (sample type: Mouse Liver, ion (formula + adduct): [C42H78NO8P+HCOO] 1-) was 288.8 Å² and the “TIMS collisional cross section” value (sample type: Mouse Liver, ion (formula + adduct): [C42H78NO8P-CH3] 1-) was 270.5 Å².

With `CC/C=C\C/C=C\C/C=C\C/C=C\C/C=C\C/C=C\CCC(=O)OC[C@H](COP(=O)(O)OC[C@H](N)C(=O)O)OC(=O)CCCCCCCCCCCCCCC` [PS 22:6_16:0] the “TIMS collisional cross section” value (sample type: Mouse Liver, ion (formula + adduct): [C44H74NO10P-H] 1-) was 283.5 Å².

In the case of `CC/C=C\C/C=C\C/C=C\C/C=C\C/C=C\CCCC(=O)O[C@H](CO/C=C\CCCCCCCCCCCCCC)COP(=O)([O-])OCC[N+](C)(C)C` [PC P- 16:0@_20:5], the “TIMS collisional cross section” value (sample type: Human plasma, ion (formula + adduct): [C44H78NO7P+HCOO] 1-) is reported as 292.2 Å² and the “TIMS collisional cross section” value (sample type: Human plasma, ion (formula + adduct): [C44H78NO7P-CH3] 1-) is reported as 275.1 Å².

With `CCCCC/C=C\C/C=C\C/C=C\C/C=C\CCCCCC(=O)OC[C@H](COP(=O)(O)OC[C@H](N)C(=O)O)OC(=O)CCCCCCCCCCCCCCC` [PS 22:4@_16:0] the “TIMS collisional cross section” value (sample type: Mouse Liver, ion (formula + adduct): [C44H78NO10P-H] 1-) was 288.7 Å².

For `CCCCCCCC/C=C\CCCCCCCCCC(=O)O[C@H](COC(=O)CCCCCCCCCCCCCCCCC)COP(=O)(O)OCCN` [PE 18:0_20:1], the “TIMS collisional cross section” value (sample type: Mouse Liver, ion (formula + adduct): [C43H84NO8P-H] 1-) was 282 Å².
